In patent US10787419B2, “Cannabinoid receptor mediating iminopyrazole compounds” (The United States of America, as represented by the …, priority 2012, dated 2020):
pKi: −log10 of the molar value.

Tests used:
[1] = system: CCl4-induced liver fibrosis; assay: CCl4-induced liver fibrosis model in mice; assay type: in vivo
Procedure: CCL-induced liver fibrosis was generated by intraperitoneal injection of CCL4 (1 ml/kg, diluted 1:10 corn oil), twice weekly for 8 weeks. […] Data represent mean±SEM from 7-8 mice per group. *P<0.05 relative to control. ^#indicates significant treatment effect (P<0.05) relative to CCl4-treated vehicle group.
Fibrosis results from excessive extracellular matrix deposition by myofibroblasts accompanying chronic inflammation and wound healing, and is a key pathogenic process in many organs, including kidneys, lung, and liver.

[2] = molecular target: iNOS (Mus musculus (Mouse), UniProt P29477); assay: iNOS activity in lung homogenates from LPS-treated mouse; assay type: biochemical
Procedure: Cellular iNOS activity was determined after replacing growth medium with reaction mixtures containing appropriate ligands (100 nM). ^& Mice were treated in vivo with vehicle or LPS (25 mg/kg, ip) and sacrificed 6 h later. Crude homogenate prepared from lung were incubated with the indicated ligands and iNOS activity was determined using a radioactivity-based assay.

[3] = in vivo metabolism, metabolite generation in plasma by LC-MS/MS; conditions: 1 h after oral 10 mg/kg in mice
[4] = system: DIO mice; assay: mice with diet-induced obesity (DIO) treated orally for 14 days; assay type: in vivo
Procedure: Glucose tolerance and insulin sensitivity were determined on the last 2 days of treatment, using i.p. glucose tolerance and insulin sensitivity tests.

[5] = system: ZDF rats; assay: Zucker diabetic fatty (ZDF) rat model of type 2 diabetes; assay type: in vivo; conditions: 10 mg/kg/day oral gavage, 7 days
[6] = molecular target: CB1 (Mus musculus (Mouse), UniProt P47746); assay: radioligand displacement assay in mouse brain membranes (Ki CB1); assay type: binding
Chain of CB1 (P47746 whole entry): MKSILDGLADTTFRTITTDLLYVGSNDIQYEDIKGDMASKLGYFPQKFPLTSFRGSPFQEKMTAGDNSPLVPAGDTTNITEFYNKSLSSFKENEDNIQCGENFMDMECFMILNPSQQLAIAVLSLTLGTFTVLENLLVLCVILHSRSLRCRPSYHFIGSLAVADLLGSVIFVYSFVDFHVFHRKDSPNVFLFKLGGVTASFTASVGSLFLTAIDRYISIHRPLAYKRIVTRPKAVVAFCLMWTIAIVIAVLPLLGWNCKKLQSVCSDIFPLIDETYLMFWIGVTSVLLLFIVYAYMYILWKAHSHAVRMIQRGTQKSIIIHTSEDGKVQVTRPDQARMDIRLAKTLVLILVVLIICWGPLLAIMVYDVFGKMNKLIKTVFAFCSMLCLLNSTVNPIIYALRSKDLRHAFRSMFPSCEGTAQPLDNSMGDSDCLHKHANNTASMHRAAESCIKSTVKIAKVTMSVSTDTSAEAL

[7] = tissue levels in brain and plasma after administration to mice; conditions: 1 hour after 10 mg/kg to mice; indicating good oral bioavailability
[8] = system: recombinant human AMPK; assay: recombinant AMPK activity assay; assay type: biochemical; conditions: rimonabant at 1 μM
From the text: Guanides and biguanides, such as metformin, are effective as antidiabetic agents linked to their AMPK activating properties (Hardie et al., Chem Biol. 2012, […]; 1222-1236). Guanidine-containing analogs in certain embodiments were screened for activation of recombinant human AMPK, using an assay kit (Cyclex, Nagona, Japan), as illustrated in FIG. 8.
Activators of AMP-activated protein kinase (AMPK), such as guanidines of biguanides such as metformin are useful for the treatment of diabetes owing to their AMPK activating property (Hardie, et al., Chem & Biol 2012, 19(10); 1222-1236). Guanidine analogues of certain embodiments were screened for AMPK activation by using a recombinant AMPK activity assay.

[9] = 10 mg/kg/day orally for 4 weeks
[10] = DIO mice, 10 mg/kg/day oral, 14 days

## CC(=N)N/C(=N\S(=O)(=O)c1ccc(Cl)cc1)N1CC(c2ccccc2)C(c2ccc(Cl)cc2)=N1 (racemic) [Compound 2, 3-(4-chlorophenyl)-N′-((4-chlorophenyl)sulfonyl)-N-(1-iminoethyl)-4-phenyl-4,5-dihydro-1H-pyrazole-1-carboximidamine]
[1]; [9]
  CCl4-induced collagen deposition / liver fibrosis by Sirius red and Masson's trichrome staining: more effective than rimonabant
  CCl4-induced elevation of iNOS immunostaining: attenuated
  α-SMA, Procollagen-1 and Fibronectin-1 mRNA: more effective than rimonabant
[2]
  inhibition at 1 µM: ~48%
[3]
  in vivo metabolism: underwent in vivo metabolism to liberate the amidine moiety and a metabolite
[4]; [10]
  hepatic TG: reduced
  hyperinsulinemia: abrogated
  hyperleptinemia: reduced
[4]; DIO mice, 10 mg/kg/day oral, during the first week
  food intake reduction: ~20%
[4]; DIO mice, 10 mg/kg/day oral, i.p. glucose tolerance and insulin sensitivity tests, last 2 days
  glucose intolerance and insulin resistance: nearly completely normalized
[4]; mouse, in vivo
  In vivo Comments: anti-diabetic anti-obesity
[5]
  blood glucose: prevented the increase in blood glucose
  insulin and c-peptide levels: prevented

## NC=NC(=NS(=O)(=O)c1ccc(Cl)cc1)N1CC(c2ccccc2)C(c2ccc(Cl)cc2)=N1 (stereo not shown) [Compound 1]
[6]; Table 2
  pKi: 6.41

## CC(=N)N/C(=N\S(=O)(=O)c1ccc(Cl)cc1)N1C[C@H](c2ccccc2)C(c2ccc(Cl)cc2)=N1 [Compound 2E1]
[1]; [9]
  CCl4-induced collagen deposition / liver fibrosis by Sirius red and Masson's trichrome staining: more effective than rimonabant
  CCl4-induced elevation of iNOS immunostaining: dramatically attenuated
[1]; compared with rimonabant
  anti-fibrotic efficacy in liver fibrosis: higher anti-fibrotic efficacy than rimonabant
[7]
  plasma levels after oral or i.p. administration: comparable

## N=C(N/C(=N\S(=O)(=O)c1ccc(Cl)cc1)N1CC(c2ccccc2)C(c2ccc(Cl)cc2)=N1)C1CC1 (stereo not shown) [Compound 4]
[6]; Table 1
  pKi: 7.89
[6]; Table 2
  pKi: 7.89

## N=C(N/C(=N\S(=O)(=O)c1ccc(Cl)cc1)N1CC(c2ccccc2)C(c2ccc(Cl)cc2)=N1)c1ccccc1 (stereo not shown) [Compound 8]
[6]; Table 1
  pKi: 7.59
[6]; Table 2
  pKi: 7.59

## N=C(N/C(=N\S(=O)(=O)c1ccc(Cl)cc1)N1CC(c2ccccc2)C(c2ccc(Cl)cc2)=N1)c1ccncc1 (stereo not shown) [Compound 12]
[6]; Table 1
  pKi: 7.47
[6]; Table 2
  pKi: 7.47

## CNC(N)=NC(=NS(=O)(=O)c1ccc(Cl)cc1)N1CC(c2ccccc2)C(c2ccc(Cl)cc2)=N1 (stereo not shown) [Compound 45]
[6]; Table 2
  pKi: 6.49

## N=C(N/C(=N\S(=O)(=O)c1ccc(Cl)cc1)N1CC(c2ccccc2)C(c2ccc(Cl)cc2)=N1)N1CCCC1 (stereo not shown) [Compound 55]
[6]; Table 1
  pKi: 6.62
[6]; Table 2
  pKi: 6.62

## NN/C(=N\S(=O)(=O)c1ccc(Cl)cc1)N1CC(c2ccccc2)C(c2ccc(Cl)cc2)=N1 (stereo not shown) [Compound 73]
[6]; Table 1
  pKi: 7.48
[6]; Table 2
  pKi: 7.48

## Cc1c(C(=O)NN2CCCCC2)nn(-c2ccc(Cl)cc2Cl)c1-c1ccc(Cl)cc1 [rimonabant, reference compound]
[1]; [9]
  CCl4-induced elevation of iNOS immunostaining: not by rimonabant
[8]
  AMPK activity: no effect
